Results: US11780845B2 (Relay Therapeutics, Inc., priority 2019, dated 2023)

Assays:
[1] = tested on: SNU-16; assay: Cell SNU-16 assay; type: cell-based
[2] = target: FGFR2 (Homo sapiens (Human), UniProt P21802); assay: Biochemical FGFR2 Caliper assay
[3] = Homo sapiens, SNU-16, SNU-16 cells

Chain of FGFR2 (P21802 22-821): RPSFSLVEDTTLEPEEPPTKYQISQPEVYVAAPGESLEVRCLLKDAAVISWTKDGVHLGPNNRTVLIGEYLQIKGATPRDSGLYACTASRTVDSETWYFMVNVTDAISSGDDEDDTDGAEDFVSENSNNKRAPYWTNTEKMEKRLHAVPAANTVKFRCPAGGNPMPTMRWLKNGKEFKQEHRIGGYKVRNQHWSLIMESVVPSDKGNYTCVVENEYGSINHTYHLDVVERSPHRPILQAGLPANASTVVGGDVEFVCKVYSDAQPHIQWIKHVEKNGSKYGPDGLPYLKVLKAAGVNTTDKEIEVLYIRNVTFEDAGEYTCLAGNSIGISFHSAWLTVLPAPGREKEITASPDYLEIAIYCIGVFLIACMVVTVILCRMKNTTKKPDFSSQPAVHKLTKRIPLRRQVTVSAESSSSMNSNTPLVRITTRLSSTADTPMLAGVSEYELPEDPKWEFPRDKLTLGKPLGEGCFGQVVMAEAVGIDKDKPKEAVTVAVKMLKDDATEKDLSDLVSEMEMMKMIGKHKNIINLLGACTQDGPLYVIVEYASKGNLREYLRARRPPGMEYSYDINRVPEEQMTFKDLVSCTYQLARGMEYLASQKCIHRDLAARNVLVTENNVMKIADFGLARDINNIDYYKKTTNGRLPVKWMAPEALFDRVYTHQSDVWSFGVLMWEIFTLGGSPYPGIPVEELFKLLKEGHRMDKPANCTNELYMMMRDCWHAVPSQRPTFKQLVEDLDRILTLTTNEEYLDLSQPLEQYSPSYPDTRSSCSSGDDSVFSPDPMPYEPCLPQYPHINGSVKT

SMILES | IC50 ([1]; SNU-16 cells) [nM] | IC50 [2] [nM] | IC50 [1, 3] [nM]
C#Cc1cc(OC)c(-c2c(-c3ccc(Oc4nccc(C)n4)c(F)c3)c3c(C)ncnc3n2C)c(C)n1 (atropisomer, axis not shown) [Example 1459] | ≤ 100 | < 100 | –
C#Cc1cc(OC)c(-c2c(-c3ccc(Oc4nccc(C)n4)c(F)c3)c3c(C)ncnc3n2C)c(C)n1 (atropisomer, axis not shown) [Example 1460] | 250 to 1000 | 1000 to 100000 | –
C#Cc1cc(C)c(-c2c(C3=CC[C@H](C(=O)N4CCC[C@H]4C#N)CC3)c3c(C)ncnc3n2C)c(C)n1 (atropisomer, axis not shown) [Example 1463] | – | 100 to 250 | ≤ 100
C#Cc1cc(C)c(-c2c(C3=CC[C@@H](C(=O)N4CCC[C@H]4C#N)CC3)c3c(C)ncnc3n2C)c(C)n1 (atropisomer, axis not shown) [Example 1464] | 250 to 1000 | 250 to 1000 | –
C#Cc1cc(C)c(-c2c(C3=CC[C@H](C(=O)N4CCC[C@H]4C#N)CC3)c3c(C)ncnc3n2C)c(C)n1 (atropisomer, axis not shown) [Example 1465] | ≤ 100 | < 100 | –
C#Cc1cc(C)c(-c2c(C3=CC[C@@H](C(=O)N4CCC[C@H]4C#N)CC3)c3c(C)ncnc3n2C)c(C)n1 (atropisomer, axis not shown) [Example 1466] | 100 to 250 | 100 to 250 | –
C#Cc1cc(C)c(-c2c(C3=CC[C@H](C(=O)N4CCC[C@H]4C#N)CC3)c3c(N)ncnc3n2C)c(C)n1 (atropisomer, axis not shown) [Example 1469] | – | < 100 | ≤ 100
C#Cc1cc(C)c(-c2c(C3=CC[C@@H](C(=O)N4CCC[C@H]4C#N)CC3)c3c(N)ncnc3n2C)c(C)n1 (atropisomer, axis not shown) [Example 1471] | – | < 100 | ≤ 100
Cn1c([C@@H]2CCN(C#N)C2)c(-c2ccc(C(=O)N3CCCC3)cc2)c2c(N)ncnc21 (single isomer, unassigned) [Example 860] | – | < 100 | 250 to 1000
Cn1c([C@H]2CCN(C#N)C2)c(-c2ccc(C(=O)N3CCCC3)cc2)c2c(N)ncnc21 (single isomer, unassigned) [Example 861] | – | 1000 to 100000 | 1000 to 100000
C=CS(=O)(=O)N1CC[C@H](c2c(-c3ccc(C(=O)N4CCCC4)cc3)c3c(N)ncnc3n2C)C1 (single isomer, unassigned) [Example 863] | – | 250 to 1000 | 100 to 250
C=CS(=O)(=O)N1CC[C@@H](c2c(-c3ccc(C(=O)N4CCCC4)cc3)c3c(N)ncnc3n2C)C1 (single isomer, unassigned) [Example 864] | – | < 100 | 100 to 250
C=C(C)C(=O)Nc1ccc(-c2nn3ccnc(N)c3c2C2=CC[C@@H](C(=O)N3CCCC3)CC2)cc1 (single isomer, unassigned) [Example 867] | – | < 100 | ≤ 100
C=C(C)C(=O)Nc1ccc(-c2nn3ccnc(N)c3c2C2=CC[C@H](C(=O)N3CCCC3)CC2)cc1 (single isomer, unassigned) [Example 869] | – | 1000 to 100000 | 250 to 1000
C=CC(=O)N1CC=C(c2c(C3=CC[C@H](C(=O)N4CCCC4)CC3)c3c(N)ncnc3n2C)C1 (single isomer, unassigned) [Example 871] | – | 250 to 1000 | 250 to 1000
C=CC(=O)N1CC=C(c2c(C3=CC[C@@H](C(=O)N4CCCC4)CC3)c3c(N)ncnc3n2C)C1 (single isomer, unassigned) [Example 872] | – | 100 to 250 | 100 to 250
C=CC(=O)N1CC[C@H](c2c(C3=CC[C@H](C(=O)N4CCCC4)CC3)c3c(N)ncnc3n2C)C1 (single isomer, unassigned) [Example 873] | – | 1000 to 100000 | 250 to 1000
C=CC(=O)N1CC[C@H](c2c(C3=CC[C@@H](C(=O)N4CCCC4)CC3)c3c(N)ncnc3n2C)C1 (single isomer, unassigned) [Example 874] | – | 250 to 1000 | 100 to 250
Cc1ccnc(Oc2ccc(-c3c([C@@H]4CCN(C(=O)CCl)C4)n(C)c4ncnc(N)c34)cc2)n1 (single isomer, unassigned) [Example 875] | – | 250 to 1000 | 250 to 1000
Cc1ccnc(Oc2ccc(-c3c([C@H]4CCN(C(=O)CCl)C4)n(C)c4ncnc(N)c34)cc2)n1 (single isomer, unassigned) [Example 876] | – | < 100 | ≤ 100
C=C(C)C(=O)Nc1ccc(-c2c(C3=C(F)C[C@@H](C(=O)N4CCCC4)CC3)c3c(N)ncnc3n2C)cc1 (single isomer, unassigned) [Example 883] | – | 1000 to 100000 | 1000 to 100000
C=CC(=O)N1C[C@@H](c2c(-c3ccc(C(=O)N4CCCCC4)cc3)c3c(N)ncnc3n2C)C[C@@H]1C (single isomer, unassigned) [Example 884] | – | 1000 to 100000 | 100 to 250
C=CC(=O)N1CC[C@@H](c2c(C3=CC[C@H](C(=O)N4CCCC4)CC3)c3c(N)ncnc3n2C)C1 (single isomer, unassigned) [Example 887] | – | 1000 to 100000 | 1000 to 100000

SMILES | IC50 ([1]; SNU-16 cells) [nM] | IC50 [2] [nM] | IC50 [1, 3] [nM]
C=CC(=O)N1C[C@H](c2c(-c3ccc(C(=O)N4CCCCC4)cc3)c3c(N)ncnc3n2C)C[C@@H]1C (single isomer, unassigned) [Example 888] | – | 1000 to 100000 | 1000 to 100000
C=C(C)C(=O)Nc1ccc(-c2c(C3=CC[C@@H](C(=O)N4CCC5(CC5)C4)CC3)c3c(N)ncnc3n2C)cc1 (single isomer, unassigned) [Example 891] | – | 1000 to 100000 | 1000 to 100000
C=C(C)C(=O)Nc1ccc(-c2c(C3=CC[C@H](C(=O)N4CCC5(CC5)C4)CC3)c3c(N)ncnc3n2C)cc1 (single isomer, unassigned) [Example 892] | – | 100 to 250 | ≤ 100
C=C(C)C(=O)Nc1ccc(-c2c(-c3ccc4c(c3)CO[C@@H]4c3cccc(C)n3)c3c(N)ncnc3n2C)cc1 (single isomer, unassigned) [Example 894] | – | 250 to 1000 | 250 to 1000
C=C(C)C(=O)Nc1ccc(-c2c(-c3ccc4c(c3)CO[C@H]4c3cccc(C)n3)c3c(N)ncnc3n2C)cc1 (single isomer, unassigned) [Example 896] | – | 100 to 250 | 250 to 1000
Cn1c(-c2ccc(NC(=O)[C@@H]3CN3)cc2)c(-c2ccc(C(=O)N3CCCC3)cc2)c2c(N)ncnc21 (single isomer, unassigned) [Example 899] | – | 1000 to 100000 | 1000 to 100000
Cn1c(-c2ccc(NC(=O)[C@H]3CN3)cc2)c(-c2ccc(C(=O)N3CCCC3)cc2)c2c(N)ncnc21 (single isomer, unassigned) [Example 900] | – | 1000 to 100000 | 1000 to 100000
Cn1c(-c2ccc(NC(=O)CCl)cc2)c(C2=CC[C@H](C(=O)N3CCCC3)CC2)c2c(N)ncnc21 (single isomer, unassigned) [Example 905] | – | 100 to 250 | ≤ 100
Cn1c(-c2ccc(NC(=O)CCl)cc2)c(C2=CC[C@@H](C(=O)N3CCCC3)CC2)c2c(N)ncnc21 (single isomer, unassigned) [Example 906] | – | < 100 | ≤ 100
Cc1ccnc(Oc2ccc(-c3c(C4=CCN(C(=O)[C@H]5CO5)C4)n(C)c4ncnc(N)c34)cc2)n1 (single isomer, unassigned) [Example 908] | – | 100 to 250 | ≤ 100
Cc1ccnc(Oc2ccc(-c3c(C4=CCN(C(=O)[C@@H]5CO5)C4)n(C)c4ncnc(N)c34)cc2)n1 (single isomer, unassigned) [Example 909] | – | 1000 to 100000 | 1000 to 100000
C=C(C)C(=O)Nc1ccc(-c2c(C3=CC[C@H](C(=O)N4CCCC45COC5)CC3)c3c(N)ncnc3n2C)cc1 (single isomer, unassigned) [Example 913] | – | < 100 | ≤ 100
C=C(C)C(=O)Nc1ccc(-c2c(C3=CC[C@@H](C(=O)N4CCCC45COC5)CC3)c3c(N)ncnc3n2C)cc1 (single isomer, unassigned) [Example 914] | – | < 100 | ≤ 100
Cc1ccnc(Oc2ccc(-c3c(-c4ccc(OC[C@H]5CO5)cc4)n(C)c4ncnc(N)c34)cc2)n1 (single isomer, unassigned) [Example 917] | – | 100 to 250 | 100 to 250
Cc1ccnc(Oc2ccc(-c3c(-c4ccc(OC[C@@H]5CO5)cc4)n(C)c4ncnc(N)c34)cc2)n1 (single isomer, unassigned) [Example 918] | – | 250 to 1000 | 1000 to 100000
C=C(C)C(=O)Nc1ccc(-c2c(-c3ccc4c(c3)OC[C@@H]4c3cccc(C)n3)c3c(N)ncnc3n2C)cc1 (single isomer, unassigned) [Example 919] | – | 100 to 250 | 1000 to 100000
C=C(C)C(=O)Nc1ccc(-c2c(-c3ccc4c(c3)OC[C@H]4c3cccc(C)n3)c3c(N)ncnc3n2C)cc1 (single isomer, unassigned) [Example 920] | – | < 100 | ≤ 100
C=C(C)C(=O)Nc1ccc(-c2c(N3CC[C@@H](C(=O)N4CCCC4)CC3=O)c3c(N)ncnc3n2C)cc1 (single isomer, unassigned) [Example 925] | – | < 100 | ≤ 100
C=C(C)C(=O)Nc1ccc(-c2c(N3CC[C@H](C(=O)N4CCCC4)CC3=O)c3c(N)ncnc3n2C)cc1 (single isomer, unassigned) [Example 926] | – | 1000 to 100000 | 1000 to 100000
C=CC(=O)N[C@@H]1Cc2ccc(-c3c(-c4ccc(Oc5nccc(C)n5)cc4)c4c(N)ncnc4n3C)cc2C1 (single isomer, unassigned) [Example 927] | – | 1000 to 100000 | 1000 to 100000
C=CC(=O)N[C@H]1Cc2ccc(-c3c(-c4ccc(Oc5nccc(C)n5)cc4)c4c(N)ncnc4n3C)cc2C1 (single isomer, unassigned) [Example 928] | – | 250 to 1000 | 250 to 1000
C=CC(=O)N[C@H]1CCc2cc(-c3c(-c4ccc(Oc5nccc(C)n5)cc4)c4c(N)ncnc4n3C)ccc21 (single isomer, unassigned) [Example 929] | – | 250 to 1000 | 100 to 250
C=C(C)C(=O)N1CC=C(c2c(-c3ccc(Oc4cccc(C)n4)cc3)c3c(N)ncnc3n2C)[C@H]1C (single isomer, unassigned) [Example 930] | – | 250 to 1000 | 100 to 250
